The conditions of data set [1]: stated as known, no test described; cited from earlier work.
The nature of data set [2]: solubility in water (statement in Example 3). The format is physicochemical. The conditions noted are these: stated to explain the reaction speed in the madder root extraction mixture. On the procedure: After analysis of the reaction mixture it follows that within 60 minutes all LP is converted into LUC. After the reaction vessel is opened, LUC is converted into NOR, a step which takes 6 hours. When oxygen is present LUC can not be detected, which means that its conversion is much faster than in the present experimental situation. […] Therefore, it is in general difficult for the enzyme to oxidize the solid LUC to NOR. However, when the reaction is performed under oxygen LUC cannot crystalize, because it is immediately oxidized to NOR.

For the compound `O=C1c2ccccc2C(=O)c2c1cc(O)c(CO)c2O` [LUC, lucidin], the mutagenicity entry in data set [1] was “mutagenic”. The solubility in water entry in data set [2] is “not soluble in water”.

Regarding `O=Cc1c(O)cc2c(c1O)C(=O)c1ccccc1C2=O` [NOR, nordamnacanthal], the solubility in water entry in data set [2] was “insoluble in water”.

(Values after patent publication US6596036B2, “Method for the production of a dye preparation based on madder root” (Coöperatie Rubia U.A., priority 2000, dated 2003).)
